Measured values from patent US20230285442A1, “USE OF OLIGOCHITOSANS AND DERIVATIVES THEREOF FOR NEUTRALIZING VIRAL AGENTS” (priority 2020, published 2023).

Assays:
[1] = test system: HIV-1 89.6; test: Anti-HIV activity in PBMC culture ex vivo, p24 in culture supernatants; format: cell-based, human; details: PBMCs infected with HIV-1 89.6, day 3 of the culture
Description: PBMCs were treated with NCD1 or not treated, followed by infection with HIV-1 89.6. Samples were pelleted on days 0, 2, and 3. Culture supernatants were assayed for p24 concentration. The assay was done in triplicate.
HIV p24 Assay: HIV-1 p24 ELISA was performed using HIV-1 p24 antigen capture assay according to manufacturer's protocol (Advanced BioSciences Laboratory).
To confirm the activity of the newly synthesized compounds in HIV infected human cells, peripheral blood mononuclear cells (PBMCs) from healthy humans were cultured and parallel assays with PBMCs treated with NCD1 and samples with no treatment were run, followed by infection with HIV-1 89.6. Samples were pelleted on days 0, 2, and 3. Culture supernatants were assayed for p24 concentration.

[2] = test system: HIV-89.6; test: HIV binding in culture supernatant, total HIV RNA in supernatant; details: non-sulfated, unmodified oligochitosan
Description: The desired compound in PBS or DMSO was incubated with virus for 30 min and then centrifuged. Total RNA isolated from supernatant was quantified. The assay was done in triplicate.
Medium/blood samples. To ensure uniformity and reproducibility, standards with known viral copy numbers of HIV89.6 (NIH NIAID repository) were prepared. A known amount of virus was spiked into cell culture medium in ten-fold serial dilutions. HIV-1 RNA was extracted using the High Pure viral RNA kit (Ambion). Complementary DNA (cDNA) was synthesized with the SuperScript III cDNA Synthesis Kit (Invitrogen) and amplified and quantified using primers specific for HIV-1 LTR. Real-time PCR amplification was performed in a CFX96™ Real-Time system (Bio-Rad, Hercules, CA). […] HIV-1 specific amplicons were detected using SYBR Green (Bio-Rad). The number of HIV-1 RNA copies in each test template was measured by its threshold cycle (Ct) as determined from the curve of serially diluted standards using data analysis software (Bio-Rad CFX Manager). […] Quantification of HIV-1 RNA in each test sample was back calculated and viral load was expressed as copies/ml. […]
Quantitative real time PCR was performed using BioRad CFX 96 with the known amounts of HIV-1 RNA as standards. The starting quantity of HIV-1 RNA in the samples treated with different compounds was determined using the standard curve and is plotted on the graph. […]

[3] = Solubility in water; format: physicochemical

Substance | p24 levels in culture supernatants, treated vs non-treated cells [1] | binding to HIV [2] | solubility in water [3]
Oligochitosan 10 kDa [NCD1] | significantly reduced | surprising and unexpected binding to HIV | soluble
Starch azure [NCD9] |  |  | insoluble in water
